Results from patent US12351581B2, “Compounds for FGFR inhibition” (Cogent Biosciences, Inc., priority 2023, dated 2025).
Read-outs that look alike come from different tables or passages of the source.

Key:
FGFR2 = target: T1, FGFR2 (Homo sapiens, UniProt P21802); test: FGFR wild type enzyme assay (HTRF KinEASE-TK); format: biochemical; settings: ATP 2 uM
T1 construct: biochemical assays using purified intracellular domains of the respective isoforms; purchased Carna Bioscience 08-134
Method in brief: (§1)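 Purified intracellular kinase domains, enzyme pre-incubated 30 min with compound (11-point 1:3 dilutions, typically 10,000-0.17 nM), then ATP plus 0.5 uM TK-peptide, 60 min at room temperature in HEPES pH7.5 with Mg2+/Mn2+. HTRF 665/615 ratio converted to percent of control; IC50 from four-parameter logistic fit.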

FGFR2-WT = FGFR2-WT (Homo sapiens, UniProt P21802); test: Phosphorylated FGFR2-WT (pFGFR2-WT) cell assay, KATOIII cells; format: cell-based; settings: 1 hour incubation, phospho FGFR2 HTRF
Chain of FGFR2-WT (P21802 430-767 limits assumed): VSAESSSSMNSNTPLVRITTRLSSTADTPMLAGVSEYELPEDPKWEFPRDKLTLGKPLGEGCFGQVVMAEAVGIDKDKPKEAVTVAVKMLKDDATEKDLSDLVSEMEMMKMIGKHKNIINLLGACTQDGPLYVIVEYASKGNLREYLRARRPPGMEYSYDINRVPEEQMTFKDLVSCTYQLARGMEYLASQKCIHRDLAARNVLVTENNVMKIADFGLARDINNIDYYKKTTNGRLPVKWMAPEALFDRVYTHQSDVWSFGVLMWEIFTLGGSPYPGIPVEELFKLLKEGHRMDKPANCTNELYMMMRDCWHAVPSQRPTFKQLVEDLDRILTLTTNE
Method in brief: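 KATOIII cells treated 1 h at 37 °C with threefold compound dilutions (10 μM to 0.5 nM). Lysate phospho-FGFR2 (Tyr653/654) read by HTRF.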

FGFR2 N549H = target: T2, FGFR2 N549H (Homo sapiens, UniProt P21802, N549H); test: FGFR mutant enzyme assay (HTRF KinEASE-TK); format: biochemical; settings: ATP 0.9 uM
T2 construct: biochemical assays using purified intracellular domains of the respective isoforms; purchased Carna Bioscience 08-532
T2 sequence (P21802 399-821 N549H limits assumed): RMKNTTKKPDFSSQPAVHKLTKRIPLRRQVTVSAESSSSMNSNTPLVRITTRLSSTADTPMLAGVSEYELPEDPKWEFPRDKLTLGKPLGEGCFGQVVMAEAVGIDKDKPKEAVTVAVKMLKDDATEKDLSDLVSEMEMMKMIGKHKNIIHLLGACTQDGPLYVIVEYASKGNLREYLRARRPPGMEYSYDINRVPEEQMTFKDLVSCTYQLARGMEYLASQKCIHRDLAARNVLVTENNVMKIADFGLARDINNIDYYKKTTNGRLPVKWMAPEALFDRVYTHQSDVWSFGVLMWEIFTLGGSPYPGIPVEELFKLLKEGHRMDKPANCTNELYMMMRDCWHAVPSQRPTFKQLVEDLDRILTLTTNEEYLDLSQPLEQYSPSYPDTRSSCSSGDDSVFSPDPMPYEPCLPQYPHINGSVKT
Method in brief: as §1

FGFR2 V564F = target: T3, FGFR2 V564F (Homo sapiens, UniProt P21802, V564F); test: FGFR mutant enzyme assay (HTRF KinEASE-TK); format: biochemical; settings: ATP 1.5 uM
T3 construct: biochemical assays using purified intracellular domains of the respective isoforms; purchased SignalChem Biotech F05-12FG
T3 sequence (P21802 399-821 V564F limits assumed): as the sequence (P21802 399-821 N549H limits assumed) above, with H151N, V166F counted along it
Method in brief: as §1

FGFR2 V564I = target: T4, FGFR2 V564I (Homo sapiens, UniProt P21802, V564I); test: FGFR mutant enzyme assay (HTRF KinEASE-TK); format: biochemical; settings: ATP 0.4 uM
T4 construct: biochemical assays using purified intracellular domains of the respective isoforms; purchased Carna Bioscience 08-546
T4 sequence (P21802 399-821 V564I limits assumed): as the sequence (P21802 399-821 N549H limits assumed) above, with H151N, V166I counted along it
Method in brief: as §1

[1] = compound table after the examples, read-out: Enz FGFR2

T1 sequence (P21802 399-821 limits assumed): as the sequence (P21802 399-821 N549H limits assumed) above, with H151N counted along it

Row | Compound | IC50 (FGFR2; Table 3, read-out: FGFR2 Enz) | IC50 (FGFR2; [1]) | IC50 (FGFR2-WT) | IC50 (FGFR2 N549H) | IC50 (FGFR2 V564F) | IC50 (FGFR2 V564I)
1 | Cc1c(-c2cc(O[C@H](C)c3ccc(F)cn3)c3c(C#N)cnn3c2)cnn1[C@@H]1CCCN(C(=O)[C@H](C)O)C1 [Compound 49, 4-((R)-1-(5-fluoropyridin-2-yl)ethoxy)-6-(1-((R)-1-((S)-2-hydroxypropanoyl)piperidin-3-yl)-5-methyl-1H-pyrazol-4-yl)pyrazolo[1,5-a]pyridine-3-carbonitrile] | 2.6 nM | 2.6 nM | 15 nM | 3 nM | 8 nM | 10 nM
2 | Cc1c(-c2cc(O[C@@H](C)c3ccc(F)cn3)c3c(C#N)cnn3c2)cnn1[C@H]1CC[C@@H](O)CC1 [Compound 50, 4-((S)-1-(5-fluoropyridin-2-yl)ethoxy)-6-(1-((1s,4R)-4-hydroxycyclohexyl)-5-methyl-1H-pyrazol-4-yl)pyrazolo[1,5-a]pyridine-3-carbonitrile] | 5.5 nM | 5.5 nM | 57 nM | 6 nM | 11 nM | 20 nM
3 | Cc1c(-c2cc(OC(C)c3ccc(F)cn3)c3c(C#N)cnn3c2)cnn1[C@H]1CC[C@H](O)CC1 (some centres unmarked) [Compound 51, 4-(1-(5-fluoropyridin-2-yl)ethoxy)-6-(1-((1r,4r)-4-hydroxycyclohexyl)-5-methyl-1H-pyrazol-4-yl)pyrazolo[1,5-a]pyridine-3-carbonitrile] | 1 nM | 1 nM | 6.5 nM | 1 nM | 2 nM | 4 nM
4 | Cc1c(-c2cc(OC(C)c3ccc(F)cn3)c3c(C#N)cnn3c2)cnn1[C@H]1CC[C@@H](O)CC1 (some centres unmarked) [Compound 52, 4-(1-(5-fluoropyridin-2-yl)ethoxy)-6-(1-((1s,4s)-4-hydroxycyclohexyl)-5-methyl-1H-pyrazol-4-yl)pyrazolo[1,5-a]pyridine-3-carbonitrile] | 0.7 nM | 0.7 nM | 6 nM | 1 nM | 2.4 nM | 3 nM
5 | Cc1c(-c2cc(O[C@H](C)c3ccc(F)cn3)c3c(C#N)cnn3c2)cnn1[C@H]1CC[C@H](OC(=O)[C@@H](N)C(C)C)CC1 [Compound 53, (1R,4S)-4-(4-(3-cyano-4-((R)-1-(5-fluoropyridin-2-yl)ethoxy)pyrazolo[1,5-a]pyridin-6-yl)-5-methyl-1H-pyrazol-1-yl)cyclohexyl L-valinate] | 0.3 nM | 0.3 nM | 3 nM | 0.5 nM | 1 nM | 1.5 nM
6 | Cc1c(-c2cc(O[C@H](C)c3cccnc3)c3c(C#N)cnn3c2)cnn1[C@H]1CC[C@H](O)CC1 [Compound 54, 6-(1-((1r,4R)-4-hydroxycyclohexyl)-5-methyl-1H-pyrazol-4-yl)-4-((R)-1-(pyridin-3-yl)ethoxy)pyrazolo[1,5-a]pyridine-3-carbonitrile] | 0.4 nM | 0.4 nM | 12 nM | 0.5 nM | 1 nM | 1 nM
7 | C[C@@H](Oc1cc(-c2cnn([C@H]3CC[C@H](O)CC3)c2)cn2ncc(C#N)c12)c1ccc(F)cn1 [Compound 55, 4-((R)-1-(5-fluoropyridin-2-yl)ethoxy)-6-(1-((1r,4R)-4-hydroxycyclohexyl)-1H-pyrazol-4-yl)pyrazolo[1,5-a]pyridine-3-carbonitrile] | 0.2 nM | 0.2 nM | 1.6 nM | 0.13 nM | 0.3 nM | 0.6 nM

The remaining lines, values ahead:

Row | IC50 (FGFR2; Table 3, read-out: FGFR2 Enz) | IC50 (FGFR2; [1]) | IC50 (FGFR2-WT) | IC50 (FGFR2 N549H) | IC50 (FGFR2 V564F) | IC50 (FGFR2 V564I) | Compound
8 | 0.2 nM | 0.2 nM | 3.4 nM | 0.2 nM | 0.6 nM | 1 nM | C[C@@H](Oc1cc(-c2ccc(N3CCC(O)CC3)nc2)cn2ncc(C#N)c12)c1ccc(F)cn1 [Compound 56, (R)-4-(1-(5-fluoropyridin-2-yl)ethoxy)-6-(6-(4-hydroxypiperidin-1-yl)pyridin-3-yl)pyrazolo[1,5-a]pyridine-3-carbonitrile]
9 | 0.15 nM | 0.15 nM | 1.6 nM | 0.15 nM | 0.45 nM | 1 nM | CN=S1(=O)CCC(n2cc(-c3cc(O[C@H](C)c4ccc(F)cn4)c4c(C#N)cnn4c3)cn2)CC1 (stereo partly drawn) [Compound 58, (R)-4-(1-(5-fluoropyridin-2-yl)ethoxy)-6-(1-(1-(methylimino)-1-oxidohexahydro-116-thiopyran-4-yl)-1H-pyrazol-4-yl)pyrazolo[1,5-a]pyridine-3-carbonitrile]
10 | 0.5 nM | 0.5 nM | 5.7 nM | 1 nM | 3 nM | 3 nM | Cc1c(-c2cc(O[C@H](C)c3ccc(F)cn3)c3c(C#N)cnn3c2)nnn1[C@H]1CC[C@H](O)CC1 [Compound 59, 4-((R)-1-(5-fluoropyridin-2-yl)ethoxy)-6-(1-((1r,4R)-4-hydroxycyclohexyl)-5-methyl-1H-1,2,3-triazol-4-yl)pyrazolo[1,5-a]pyridine-3-carbonitrile]
11 | 0.4 nM | 0.4 nM | 3.5 nM | 0.5 nM | 1.5 nM | 2 nM | CC[C@@H](Oc1cc(-c2cnn([C@H]3CC[C@H](O)CC3)c2C)cn2ncc(C#N)c12)c1ccc(F)cn1 [Compound 60, 4-((R)-1-(5-fluoropyridin-2-yl)propoxy)-6-(1-((1r,4R)-4-hydroxycyclohexyl)-5-methyl-1H-pyrazol-4-yl)pyrazolo[1,5-a]pyridine-3-carbonitrile]
12 | 0.3 nM | 0.3 nM | 3 nM | 0.4 nM | 1 nM | 1.5 nM | Cc1c(-c2cc(O[C@H](C)c3ccc(F)cn3)c3c(C#N)cnn3c2)cnn1[C@H]1CCCC[C@@H]1O [Compound 61, 4-((R)-1-(5-fluoropyridin-2-yl)ethoxy)-6-(1-((1S,2S)-2-hydroxycyclohexyl)-5-methyl-1H-pyrazol-4-yl)pyrazolo[1,5-a]pyridine-3-carbonitrile]
13 | 7 nM | 8 nM | 48 nM | 9 nM | 21.5 nM | 30 nM | Cc1c(-c2cc(O[C@H](C)c3ccc(F)cn3)c3c(C#N)cnn3c2)cnn1[C@@H]1CCCC[C@H]1O [Compound 62, 4-((R)-1-(5-fluoropyridin-2-yl)ethoxy)-6-(1-((1R,2R)-2-hydroxycyclohexyl)-5-methyl-1H-pyrazol-4-yl)pyrazolo[1,5-a]pyridine-3-carbonitrile]
14 | 0.3 nM | 0.3 nM | 3.3 nM | 0.3 nM | 1 nM | 1 nM | C[C@@H](Oc1cc(-c2ccc(N3CC[C@H](O)[C@@H](O)C3)nc2)cn2ncc(C#N)c12)c1ccc(F)cn1 [Compound 63, 6-(6-((3S,4S)-3,4-dihydroxypiperidin-1-yl)pyridin-3-yl)-4-((R)-1-(5-fluoropyridin-2-yl)ethoxy)pyrazolo[1,5-a]pyridine-3-carbonitrile]
15 | 0.3 nM | – | 4 nM | 0.2 nM | 0.6 nM | 0.7 nM | C[C@@H](Oc1cc(-c2ccc(N3CC[C@@H](O)[C@H](O)C3)nc2)cn2ncc(C#N)c12)c1ccc(F)cn1 [Compound 64, 6-(6-((3R,4R)-3,4-dihydroxypiperidin-1-yl)pyridin-3-yl)-4-((R)-1-(5-fluoropyridin-2-yl)ethoxy)pyrazolo[1,5-a]pyridine-3-carbonitrile]
16 | 3 nM | 3 nM | 21 nM | 3.5 nM | 9.5 nM | 10.6 nM | Cc1c(-c2cc(O[C@H](CO)c3ccc(F)cn3)c3c(C#N)cnn3c2)cnn1[C@H]1CC[C@H](O)CC1 [Compound 65, 4-((S)-1-(5-fluoropyridin-2-yl)-2-hydroxyethoxy)-6-(1-((1r,4S)-4-hydroxycyclohexyl)-5-methyl-1H-pyrazol-4-yl)pyrazolo[1,5-a]pyridine-3-carbonitrile]
17 | 105 nM | 110 nM | 793 nM | 106 nM | 139 nM | 369 nM | Cc1c(-c2cc(O[C@@H](CO)c3ccc(F)cn3)c3c(C#N)cnn3c2)cnn1[C@H]1CC[C@H](O)CC1 [Compound 66, 4-((R)-1-(5-fluoropyridin-2-yl)-2-hydroxyethoxy)-6-(1-((1r,4R)-4-hydroxycyclohexyl)-5-methyl-1H-pyrazol-4-yl)pyrazolo[1,5-a]pyridine-3-carbonitrile]
18 | 0.4 nM | 0.4 nM | 4 nM | 0.4 nM | 1 nM | 1.4 nM | Cc1c(-c2cc(O[C@H](C)c3ccc(F)cn3)c3c(C#N)cnn3c2)cnn1[C@H]1CCC[C@H](O)C1 [Compound 67, 4-((R)-1-(5-fluoropyridin-2-yl)ethoxy)-6-(1-((1S,3S)-3-hydroxycyclohexyl)-5-methyl-1H-pyrazol-4-yl)pyrazolo[1,5-a]pyridine-3-carbonitrile]
